Test results from patent publication US4089965A, “Thiazolylphenylguanidines as antirhinovirus agents” (American Cyanamid Company, priority 1977, dated 1978).
Values after ≈ are worked out from the molar mass of the structure shown.

Assays:
Assay type in all cases: cell-based
Coxsackievirus B-2 = assay: Plaque assay, minimal inhibitory concentration; settings: HeLa Cells, inhibiting virus plaque formation by 50%
Rhinovirus Type 2 = assay: Viral sensitivity, filter disc method; settings: strain HGP; about 50 mcg per disc, HeLa
Procedure: (§1) In the test for viral sensitivity, by the filter disc method, 5 mg. of 1-(4-phenyl-2-thiazolyl)-3-phenylguanidine was dissolved in 1-2 drops of dimethylsulfoxide and 2.5 ml. of saline. Filter paper discs, when saturated with the solution, absorbed about 50 mcg. of the compound.
(§2) Sensitivity tests were performed by a modification of the method of Herrmann, et al., Proc. Soc. Exp. Biol. & Med., 103, 625 (1960). HeLa monolayers in 150 mm plastic dishes were infected with 1.0 ml. of rhinovirus suspension known to produce destruction of 80-90% of the cells in 4 to 5 days. Following viral adsorption, the cells were overlayed with 30 ml. of Eagle's minimum essential medium containing Noble agar at 0.5%, bovine fetal serum at 2.0%, diethylaminoethyl dextran at 100 mcg/ml. and magnesium chloride at 3 millimoles. Filter discs (1/4 inch Carl Schleicher and Schuell Co., No. 740E), containing about 50 mcg. of 1-(4-phenyl-2-thiazolyl)-3-phenylguanidine, were placed on the solidified surface and the culture plates incubated at 33° C. After 4 to 5 days, the overlay medium was decanted and the cells stained with 0.1% crystal violet in 20% ethanol. A zone of 10 mm or more in which at least two-thirds of the cells were protected from viral cytopathic effects, indicates antiviral activity. The following Table III lists 35 rhinovirus serotypes which were inhibited by this compound.

Rhinovirus Type 28 = assay: Viral sensitivity, filter disc method; settings: strain 6101CV29; about 50 mcg per disc, HeLa
Procedure: as §1, §2

Rhinovirus Type 25 = assay: Viral sensitivity, filter disc method; settings: strain 5426CV26; about 50 mcg per disc, HeLa
Procedure: as §1, §2

Rhinovirus Type 4 = assay: Viral sensitivity, filter disc method; settings: strain 16/60; about 50 mcg per disc, HeLa
Procedure: as §1, §2

Rhinovirus Type 49 = assay: Viral sensitivity, filter disc method; settings: strain 8213; about 50 mcg per disc, HeLa
Procedure: as §1, §2

Rhinovirus Type 12 = assay: Viral sensitivity, filter disc method; settings: strain 181CV16; about 50 mcg per disc, HeLa
Procedure: as §1, §2

Rhinovirus Type 19 = assay: Viral sensitivity, filter disc method; settings: strain 6072CV18; about 50 mcg per disc, HeLa
Procedure: as §1, §2

Rhinovirus Type 41 = assay: Viral sensitivity, filter disc method; settings: strain 56110; about 50 mcg per disc, HeLa
Procedure: as §1, §2

Rhinovirus Type 47 = assay: Viral sensitivity, filter disc method; settings: strain 1979MCV46; about 50 mcg per disc, HeLa
Procedure: as §1, §2

Rhinovirus Type 21 = assay: Viral sensitivity, filter disc method; settings: strain 47CV21; about 50 mcg per disc, HeLa
Procedure: as §1, §2

Rhinovirus Type 14 = assay: Viral sensitivity, filter disc method; settings: strain 1059; about 50 mcg per disc, HeLa
Procedure: as §1, §2

Rhinovirus Type 10 = assay: Viral sensitivity, filter disc method; settings: strain 204CV14; about 50 mcg per disc, HeLa
Procedure: as §1, §2

Rhinovirus Type 46 = assay: Viral sensitivity, filter disc method; settings: strain Baylor 2; about 50 mcg per disc, HeLa
Procedure: as §1, §2

Rhinovirus Type 53 = assay: Viral sensitivity, filter disc method; settings: strain FO13928; about 50 mcg per disc, HeLa
Procedure: as §1, §2

Rhinovirus Type 52 = assay: Viral sensitivity, filter disc method; settings: strain 515-CV34; about 50 mcg per disc, HeLa
Procedure: as §1, §2

Rhinovirus Type 5 = assay: Viral sensitivity, filter disc method; settings: strain Norman; about 50 mcg per disc, HeLa
Procedure: as §1, §2

Rhinovirus Type 29 = assay: Viral sensitivity, filter disc method; settings: strain 179E; about 50 mcg per disc, HeLa
Procedure: as §1, §2

Rhinovirus Type 30 = assay: Viral sensitivity, filter disc method; settings: strain 106F; about 50 mcg per disc, HeLa
Procedure: as §1, §2

Rhinovirus Type 11 = assay: Viral sensitivity, filter disc method; settings: strain 1CV15; about 50 mcg per disc, HeLa
Procedure: as §1, §2

Rhinovirus Type 13 = assay: Viral sensitivity, filter disc method; settings: strain 353; about 50 mcg per disc, HeLa
Procedure: as §1, §2

Rhinovirus Type 36 = assay: Viral sensitivity, filter disc method; settings: strain 342H; about 50 mcg per disc, HeLa
Procedure: as §1, §2

Rhinovirus Type 23 = assay: Viral sensitivity, filter disc method; settings: strain 5124CV24; about 50 mcg per disc, HeLa
Procedure: as §1, §2

Rhinovirus Type 22 = assay: Viral sensitivity, filter disc method; settings: strain 127CV22; about 50 mcg per disc, HeLa
Procedure: as §1, §2

Rhinovirus Type 15 = assay: Viral sensitivity, filter disc method; settings: strain 1734; about 50 mcg per disc, HeLa
Procedure: as §1, §2

Rhinovirus Type 26 = assay: Viral sensitivity, filter disc method; settings: strain 5660CV27; about 50 mcg per disc, HeLa
Procedure: as §1, §2

Rhinovirus Type 24 = assay: Viral sensitivity, filter disc method; settings: strain 5146CV25; about 50 mcg per disc, HeLa
Procedure: as §1, §2

Rhinovirus Type 50 = assay: Viral sensitivity, filter disc method; settings: strain A2 No. 58; about 50 mcg per disc, HeLa
Procedure: as §1, §2

Rhinovirus Type 9 = assay: Viral sensitivity, filter disc method; settings: strain 211CV13; about 50 mcg per disc, HeLa
Procedure: as §1, §2

Rhinovirus Type 34 = assay: Viral sensitivity, filter disc method; settings: strain 137-3; about 50 mcg per disc, HeLa
Procedure: as §1, §2

Rhinovirus Type 45 = assay: Viral sensitivity, filter disc method; settings: strain Baylor 1; about 50 mcg per disc, HeLa
Procedure: as §1, §2

Rhinovirus Type 31 = assay: Viral sensitivity, filter disc method; settings: strain 140F; about 50 mcg per disc, HeLa
Procedure: as §1, §2

Rhinovirus Type 38 = assay: Viral sensitivity, filter disc method; settings: strain CH79; about 50 mcg per disc, HeLa
Procedure: as §1, §2

Rhinovirus Type 51 = assay: Viral sensitivity, filter disc method; settings: strain 605CV45; about 50 mcg per disc, HeLa
Procedure: as §1, §2

Question: `N=C(Nc1ccccc1)Nc1nc(-c2ccccc2)cs1` [1-(4-phenyl-2-thiazolyl)-3-phenylguanidine] was tested. Which IC50 (Coxsackievirus B-2) did it give?
Answer: 0.8 to 1.6 µg/mL (≈ 2.72 to 5.44 µM)

Question: What about the “inhibition of rhinovirus serotype (zone of 10 mm or more)” value (“inhibition of rhinovirus serotype” below) (Rhinovirus Type 2) of the same compound?
Answer: inhibited

Question: And the “inhibition of rhinovirus serotype” value (Rhinovirus Type 28)?
Answer: inhibited

Question: And the “inhibition of rhinovirus serotype” value (Rhinovirus Type 25)?
Answer: inhibited

Question: And the “inhibition of rhinovirus serotype” value (Rhinovirus Type 4)?
Answer: inhibited

Question: And the “inhibition of rhinovirus serotype” value (Rhinovirus Type 49)?
Answer: inhibited

Question: And the “inhibition of rhinovirus serotype” value (Rhinovirus Type 12)?
Answer: inhibited

Question: What about the “inhibition of rhinovirus serotype” value (Rhinovirus Type 19) of the same compound?
Answer: inhibited

Question: What about the “inhibition of rhinovirus serotype” value (Rhinovirus Type 41) of the same compound?
Answer: inhibited

Question: And the “inhibition of rhinovirus serotype” value (Rhinovirus Type 47)?
Answer: inhibited

Question: And the “inhibition of rhinovirus serotype” value (Rhinovirus Type 21)?
Answer: inhibited

Question: What about the “inhibition of rhinovirus serotype” value (Rhinovirus Type 14) of the same compound?
Answer: inhibited

Question: And the “inhibition of rhinovirus serotype” value (Rhinovirus Type 10)?
Answer: inhibited

Question: And the “inhibition of rhinovirus serotype” value (Rhinovirus Type 46)?
Answer: inhibited

Question: And the “inhibition of rhinovirus serotype” value (Rhinovirus Type 53)?
Answer: inhibited

Question: And the “inhibition of rhinovirus serotype” value (Rhinovirus Type 52)?
Answer: inhibited

Question: What about the “inhibition of rhinovirus serotype” value (Rhinovirus Type 5) of the same compound?
Answer: inhibited

Question: And the “inhibition of rhinovirus serotype” value (Rhinovirus Type 29)?
Answer: inhibited

Question: And the “inhibition of rhinovirus serotype” value (Rhinovirus Type 30)?
Answer: inhibited

Question: And the “inhibition of rhinovirus serotype” value (Rhinovirus Type 11)?
Answer: inhibited

Question: What about the “inhibition of rhinovirus serotype” value (Rhinovirus Type 13) of the same compound?
Answer: inhibited

Question: What about the “inhibition of rhinovirus serotype” value (Rhinovirus Type 36) of the same compound?
Answer: inhibited

Question: And the “inhibition of rhinovirus serotype” value (Rhinovirus Type 23)?
Answer: inhibited

Question: What about the “inhibition of rhinovirus serotype” value (Rhinovirus Type 22) of the same compound?
Answer: inhibited

Question: And the “inhibition of rhinovirus serotype” value (Rhinovirus Type 15)?
Answer: inhibited

Question: What about the “inhibition of rhinovirus serotype” value (Rhinovirus Type 26) of the same compound?
Answer: inhibited

Question: What about the “inhibition of rhinovirus serotype” value (Rhinovirus Type 24) of the same compound?
Answer: inhibited

Question: What about the “inhibition of rhinovirus serotype” value (Rhinovirus Type 50) of the same compound?
Answer: inhibited

Question: And the “inhibition of rhinovirus serotype” value (Rhinovirus Type 9)?
Answer: inhibited

Question: And the “inhibition of rhinovirus serotype” value (Rhinovirus Type 34)?
Answer: inhibited

Question: What about the “inhibition of rhinovirus serotype” value (Rhinovirus Type 45) of the same compound?
Answer: inhibited

Question: And the “inhibition of rhinovirus serotype” value (Rhinovirus Type 31)?
Answer: inhibited

Question: And the “inhibition of rhinovirus serotype” value (Rhinovirus Type 38)?
Answer: inhibited

Question: And the “inhibition of rhinovirus serotype” value (Rhinovirus Type 51)?
Answer: inhibited
